According to ChEMBL document CHEMBL3792312, “Synthesis and docking studies of pyrazine-thiazolidinone hybrid scaffold targeting dormant tuberculosis” (Bioorg Med Chem Lett, 2016):
In brackets after ≈: the same amount, converted by molar mass.

Columns and labels:
Staphylococcus aureus [1] = test: Antibacterial activity against Staphylococcus aureus at 3 ug after 12 hrs; format: functional
Pseudomonas fluorescens [2] = test: Antibacterial activity against Pseudomonas fluorescens at 30 ug after 8 hrs; format: functional
[3] = (§1) Cytotoxicity against human MCF7 cells after 4 days by MTT assay; format: cell-based; conditions: human, MCF7 cells; read-out: MIC
MCF7 = test: as §1; format: cell-based; conditions: Homo sapiens, MCF7, 96 h
[4] = tested on: Mycolicibacterium smegmatis; test: Antitubercular activity against dormant Mycobacterium smegmatis MC2 155 at 30 ug after 12 days by XTT-Menadione assay; format: functional, str. MC2 155
Staphylococcus aureus [5] = test: Antibacterial activity against Staphylococcus aureus at 10 ug after 12 hrs; format: functional
Bacillus subtilis [6] = test: Antibacterial activity against Bacillus subtilis at 3 ug after 12 hrs; format: functional
Pseudomonas fluorescens [7] = test: Antibacterial activity against Pseudomonas fluorescens at 3 ug after 8 hrs; format: functional
[8] = (§2) Cytotoxicity against human A549 cells after 3 days by MTT assay; format: cell-based; conditions: human, A549 cells; read-out: MIC
A549 = test: as §2; format: cell-based; conditions: Homo sapiens, A549, 72 h
[9] = tested on: Mycobacterium tuberculosis; test: Antitubercular activity against dormant Mycobacterium tuberculosis H37Ra after 12 days by XTT-Menadione assay; format: functional, organism-based; conditions: 288 h
[10] = tested on: Mycolicibacterium smegmatis; test: Antitubercular activity against dormant Mycobacterium smegmatis MC2 155 at 3 ug after 12 days by XTT-Menadione assay; format: functional, str. MC2 155
Bacillus subtilis [11] = test: Antibacterial activity against Bacillus subtilis at 10 ug after 12 hrs; format: functional
[12] = tested on: Mycobacterium tuberculosis; test: Antitubercular activity against dormant Mycobacterium tuberculosis H37Ra at 3 ug after 12 days by XTT-Menadione assay; format: functional
Escherichia coli [13] = test: Antibacterial activity against Escherichia coli at 3 ug after 8 hrs; format: functional
Staphylococcus aureus [14] = test: Antibacterial activity against Staphylococcus aureus at 30 ug after 12 hrs; format: functional
[15] = tested on: Mycolicibacterium smegmatis; test: Antitubercular activity against dormant Mycobacterium smegmatis MC2 155 at 10 ug after 12 days by XTT-Menadione assay; format: functional, str. MC2 155
Escherichia coli [16] = test: Antibacterial activity against Escherichia coli at 30 ug after 8 hrs; format: functional
[17] = tested on: Mycobacterium tuberculosis; test: Antitubercular activity against dormant Mycobacterium tuberculosis H37Ra at 10 ug after 12 days by XTT-Menadione assay; format: functional
[18] = Cytotoxicity against human PANC1 cells after 5 days by MTT assay; format: cell-based, PANC-1; conditions: for IC50: Homo sapiens, PANC-1, 120 h; for MCC at 120 h: human, PANC1 cells, read-out: MIC
Pseudomonas fluorescens [19] = test: Antibacterial activity against Pseudomonas fluorescens at 10 ug after 8 hrs; format: functional
[20] = tested on: Mycobacterium tuberculosis; test: Antitubercular activity against dormant Mycobacterium tuberculosis H37Ra at 30 ug after 12 days by XTT-Menadione assay; format: functional
[21] = Cytotoxicity against human THP1 cells after 5 days by MTT assay; format: cell-based, THP-1; conditions: for IC50: Homo sapiens, THP-1, 120 h; for MCC at 120 h: human, THP1 cells, read-out: MIC
Bacillus subtilis [22] = test: Antibacterial activity against Bacillus subtilis at 30 ug after 12 hrs; format: functional
Escherichia coli [23] = test: Antibacterial activity against Escherichia coli at 10 ug after 8 hrs; format: functional

SMILES | inhibition (INH) (Staphylococcus aureus [1]) [%] | inhibition (INH) (Pseudomonas fluorescens [2]) [%] | MCC at 96 h [3] [µg/mL] | IC50 (MCF7) [µg/mL] | inhibition (INH) [4] [%] | inhibition (INH) (Staphylococcus aureus [5]) [%] | inhibition (INH) (Bacillus subtilis [6]) [%] | inhibition (INH) (Pseudomonas fluorescens [7]) [%] | MCC at 72 h [8] [µg/mL] | IC50 (A549) [µg/mL] | IC50 [9] [µg/mL] | MIC [9] [µg/mL] | inhibition (INH) [10] [%] | inhibition (INH) (Bacillus subtilis [11]) [%] | inhibition (INH) [12] [%] | inhibition (INH) (Escherichia coli [13]) [%] | inhibition (INH) (Staphylococcus aureus [14]) [%] | inhibition (INH) [15] [%] | inhibition (INH) (Escherichia coli [16]) [%] | inhibition (INH) [17] [%] | further results
COc1ccc([C@H]2SCC(=O)N2NC(=O)c2nccnc2N)cc1OC | 26.84 | 41.19 | > 100 | 86.2 (≈ 230 µM) | 31.62 | 6.63 | 8.28 | 30.31 | > 100 | 80 (≈ 213 µM) | 0.718 (≈ 1.91 µM) | 25.8 (≈ 68.8 µM) | 50.59 | 22.5 | 50.37 | 70.93 | 34.19 | 35.96 | 4.659 | 70.88 | IC50 [18]: > 100 µg/mL; MCC at 120 h [18]: > 100 µg/mL; inhibition (INH) (Pseudomonas fluorescens [19]): 22.77%; inhibition (INH) [20]: 90.99%; IC50 [21]: 85.4 µg/mL (≈ 228 µM); MCC at 120 h [21]: > 100 µg/mL; inhibition (INH) (Bacillus subtilis [22]): 9.92%; inhibition (INH) (Escherichia coli [23]): 50.22%
Cc1cnc(C(=O)NN2C(=O)CS[C@@H]2c2cccc([N+](=O)[O-])c2)cn1 | -1.03 | 42.75 | > 100 | > 100 | 19.6 | 33.4 | 3.26 | 20.43 | > 100 | > 100 | 4.29 (≈ 11.9 µM) | 29 (≈ 80.7 µM) | 57.26 | 0.21 | 48.93 | 47.15 | 17.56 | 20.19 | 70.21 | 56.26 | IC50 [18]: > 100 µg/mL; MCC at 120 h [18]: > 100 µg/mL; inhibition (INH) (Pseudomonas fluorescens [19]): 33.6%; inhibition (INH) [20]: 91.39%; IC50 [21]: > 100 µg/mL; MCC at 120 h [21]: > 100 µg/mL; inhibition (INH) (Bacillus subtilis [22]): 4.11%; inhibition (INH) (Escherichia coli [23]): 53.08%
Cc1cnc(C(=O)NN2C(=O)CS[C@@H]2c2ccc([N+](=O)[O-])cc2)cn1 | 9.39 | 22.82 | > 100 | > 100 | 10.44 | -8.13 | 21.45 | 26.73 | > 100 | > 100 | 0.528 (≈ 1.47 µM) | 27.5 (≈ 76.6 µM) | 57.99 | 22.68 | 72.31 | 56.92 | 13.12 | 42.01 | 62.08 | 73.66 | IC50 [18]: > 100 µg/mL; MCC at 120 h [18]: > 100 µg/mL; inhibition (INH) (Pseudomonas fluorescens [19]): 7.48%; inhibition (INH) [20]: 91.72%; IC50 [21]: > 100 µg/mL; MCC at 120 h [21]: > 100 µg/mL; inhibition (INH) (Bacillus subtilis [22]): 13.11%; inhibition (INH) (Escherichia coli [23]): 37.74%
